Measured values reported in PubChem BioAssay (NCI).
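Interpolation was linear, between the two tested concentrations surrounding the appropriate level; five concentrations were tested over 48 hours in 96-well plates. Abbreviation: GI50, concentration required for 50% inhibition of growth. TGI: total growth inhibition.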

How the values were obtained:
Assay in all cases: NCI tumour cell line growth inhibition, 48 h
[1] = tested on: SF-268 CNS
[2] = tested on: OVCAR-4 ovarian
[3] = tested on: SK-MEL-5 melanoma
[4] = tested on: COLO 205 colon
[5] = tested on: UO-31 renal
[6] = tested on: CCRF-CEM leukemia
[7] = tested on: KM12 colon
[8] = tested on: SR leukemia
[9] = tested on: OVCAR-3 ovarian
[10] = tested on: HL-60(TB) leukemia

Compound | TGI [1] | TGI [2] | TGI [3] | TGI [4] | TGI [5] | TGI [6] | TGI [7] | TGI [8] | TGI [9] | TGI [10] | GI50 [9] | GI50 [1] | GI50 [10] | GI50 [3] | GI50 [4] | GI50 [5] | GI50 [6] | GI50 [7] | GI50 [8] | GI50 [2]
S=P(c1ccccc1)(c1ccccc1)C1(C2(P(=S)(c3ccccc3)c3ccccc3)CC2)CC1 | > 100 µM | > 100 µM | > 100 µM | > 100 µM | > 100 µM | > 100 µM | > 100 µM | > 100 µM |  |  |  |  |  |  |  |  |  |  |  | 
CCN(CC)C(=O)CNC(=O)OC(C)(C)C | > 100 µM | > 100 µM | > 100 µM |  | > 100 µM | > 100 µM | > 100 µM |  | > 100 µM | > 100 µM |  |  |  |  |  |  |  |  |  | 
C[Si](C)(C)/C=C\CCCN1C(=O)CCC1=O | > 100 µM |  | > 100 µM | > 100 µM | > 100 µM | > 100 µM | > 100 µM | > 100 µM | > 100 µM | > 100 µM |  |  |  |  |  |  |  |  |  | 
CN(C)Cc1cccc(CN(C)C)[c]1[Sn]([Br])([c]1ccccc1)[c]1ccccc1 | 17.5 µM |  | 24.7 µM | 17.9 µM | 26.8 µM | > 100 µM | 28.1 µM | 12 µM | 24.3 µM | 3.93 µM | 11.3 µM | 3.77 µM | 1.76 µM | 11 µM | 4.37 µM | 13.1 µM | 5.45 µM | 11 µM | 2.36 µM | 
Oc1cccc(Cn2c(-c3cccc(O)c3O)nc3ccccc32)c1O | 28.7 µM | > 100 µM | 18.1 µM | 32.2 µM | > 100 µM | > 100 µM | 30.2 µM | > 100 µM | 0.76 µM |  | 0.0683 µM | 4.74 µM |  | 5.76 µM | 11.7 µM | 12.8 µM | 7.56 µM | 8.62 µM | 3.42 µM | 5.2 µM
CC(=O)O[C@H]1CCC2[C@@H]3CCC4Nc5c(cnn5-c5ccccc5)C[C@]4(C)C3CC[C@@]21C (some centres undefined) | > 100 µM | 71.3 µM | 22 µM | 28.9 µM | 22.9 µM | 39.5 µM | 37.8 µM |  | 46.2 µM | 32.9 µM |  |  |  |  |  |  |  |  |  | 
N#Cc1nn(C2OC(COC(=O)c3ccccc3)C(OC(=O)c3ccccc3)C2OC(=O)c2ccccc2)c2nc[nH]c(=O)c12 (centres undefined) | > 100 µM | > 100 µM | 65.6 µM | > 100 µM | > 100 µM | 84.7 µM |  | 94.4 µM | > 100 µM | 83.4 µM |  |  |  |  |  |  |  |  |  | 
c1ccc2c(c1)nnn2CNc1ccc(N2CCOCC2)cc1 | > 100 µM | > 100 µM |  | > 100 µM | > 100 µM | > 100 µM | > 100 µM | > 100 µM | > 100 µM | > 100 µM |  |  |  |  |  |  |  |  |  | 
C/C(=N\NS(=O)(=O)c1ccc(C)cc1)c1c(O)cc(C)oc1=O | > 100 µM | > 100 µM | > 100 µM |  | > 100 µM | > 100 µM | > 100 µM | > 100 µM |  | > 100 µM |  |  |  |  |  |  |  |  |  | 
c1ccc(/N=C2\c3ccccc3CN2c2ccccn2)nc1 | > 100 µM | > 100 µM | > 100 µM | > 100 µM | > 100 µM |  | > 100 µM |  | > 100 µM |  |  |  |  |  |  |  |  |  |  | 
C[C@@H](NC1CCC[C@@H]1O)c1ccccc1 (some centres undefined) |  | > 100 µM | > 100 µM | > 100 µM | > 100 µM | > 100 µM | > 100 µM |  | > 100 µM | > 100 µM |  |  |  |  |  |  |  |  |  | 
COc1ccc(-c2csc(NC(=O)N3CCN(c4cc5c(cc4F)c(=O)c(C(=O)O)cn5C4CC4)CC3)n2)cc1 | > 100 µM |  |  |  | > 100 µM | 13.1 µM | > 100 µM | 13 µM | 17.9 µM |  | 0.89 µM | 1.23 µM |  |  |  | 1.62 µM | 1.43 µM | 1.63 µM | 1.93 µM | 
CC(C(=O)c1ccccc1)C1(O)C(=O)Nc2ccccc21 (centres undefined) | > 100 µM | > 100 µM | > 100 µM | > 100 µM | > 100 µM | > 100 µM | > 100 µM | > 100 µM | > 100 µM |  |  |  |  |  |  |  |  |  |  | 
CCOC(=O)CNC1C(NC(C)=O)C(OC)OC2COC(c3ccccc3)OC21 (centres undefined) | > 100 µM | > 100 µM | > 100 µM | > 100 µM | > 100 µM | > 100 µM | > 100 µM |  | > 100 µM | > 100 µM |  |  |  |  |  |  |  |  |  | 
O=C(Nc1ccc(Cl)cc1)c1cc2cc(F)ccc2cc1O | > 100 µM | 8.99 µM | 1.52 µM | 6.4 µM | > 100 µM | 15.6 µM | > 100 µM |  | > 100 µM | 6.78 µM | 1.09 µM | 2.46 µM | 1.22 µM | 0.417 µM | 2.35 µM | 1.08 µM | 3.35 µM | 2.74 µM |  | 2.56 µM
CCN(CC)CCOC(=O)/C(=C/c1ccc(OC)cc1)c1cc(OC)c(OC)c(OC)c1 | > 100 µM | > 100 µM | 11.4 µM | 18.9 µM | 31.9 µM | > 100 µM | 16 µM |  | 64.3 µM | 16.4 µM |  |  |  |  |  |  |  |  |  | 
COc1cc2ccc(/C(C)=N/OC(C)=O)cc2cc1OC | > 100 µM | > 100 µM |  | > 100 µM | 99.6 µM | > 100 µM | > 100 µM |  | > 100 µM |  |  |  |  |  |  |  |  |  |  | 
Cc1[nH]c2ccccc2c1C1CC(=O)NC1=O (centres undefined) |  | > 100 µM | > 100 µM |  | > 100 µM | > 100 µM | > 100 µM |  | > 100 µM | > 100 µM |  |  |  |  |  |  |  |  |  | 
COc1cc2c(=O)n(CCCn3ccnc3)c3c4cc5c(cc4ccc3c2cc1OC)OCO5 | 14.9 µM |  |  | > 100 µM | > 100 µM | > 100 µM | > 100 µM | > 100 µM | > 100 µM |  | 0.344 µM | 0.448 µM |  |  | 0.291 µM | 0.262 µM | 0.34 µM | 1.37 µM | 0.203 µM | 
NCC1OC(n2cnc3c(=O)[nH]c(N)nc32)C(O)C1O (centres undefined) | > 100 µM | > 100 µM | > 100 µM | > 100 µM | > 100 µM | > 100 µM | > 100 µM |  | > 100 µM | > 100 µM |  |  |  |  |  |  |  |  |  | 
COc1ccc(-c2nc(N)c3ncn(C4OC(CO)C(O)C4O)c3n2)cc1 (centres undefined) | > 100 µM | > 100 µM | > 100 µM | > 100 µM |  | > 100 µM | > 100 µM | > 100 µM | > 100 µM | > 100 µM |  |  |  |  |  |  |  |  |  | 
